The values below come from patent publication US12577240B2, “Antiviral heteroaryl ketone derivatives” (Pfizer Inc., priority 2020, dated 2026).

Experiment [1] has as its system SARS-CoV-2 (USA_WA1/2020) in VeroE6 cells enriched for hACE2 expression. Description: Antiviral Activity from SARS-CoV-2 Infection (cytopathic effect, Cell Titer-Glo cell viability). The class given is cell-based. The conditions noted are these: Severe acute respiratory syndrome coronavirus 2, Vero C1008, 72 h; VeroE6 cells enriched for hACE2, multiplicity of infection 0.002, 3-day incubation; alone or with 2 μM CP-100356 (table does not say which); read-out: Antiviral Assay Geometric Mean EC50.

The target in experiment [2] is T1, full length SARS-CoV-2 3CL protease (Severe acute respiratory syndrome coronavirus 2, UniProt P0DTD1).
T1 construct: measures the activity of full length SARS-CoV-2 3CL protease
Description: SARS-CoV-2 Coronavirus 3C Protease FRET Assay. The class given is biochemical. The conditions noted are these: 15 nM enzyme, 25 μM peptide substrate, 60 minutes at 23° C., Morrison equation fit; read-out: FRET Assay Geometric Mean Ki.

As for `CC(C)[C@H](NS(C)(=O)=O)C(=O)N1CC2(CC2)C[C@H]1C(=O)N[C@@H](C[C@@H]1CCNC1=O)C(=O)c1nc2ccccc2s1` [Example 1, (6S)—N-{(2S)-1-(1,3-Benzothiazol-2-yl)-1-oxo-3-[(3S)-2-oxopyrrolidin-3-yl]propan-2-yl}-5-{(2S)-3-methyl-2-[(methylsulfonyl)amino]butanoyl}-5-azaspiro[2.4]heptane-6-carboxamide], the EC50 in experiment [1] was found to be 5.68 µM. Besides, in experiment [2], the Ki stood at 0.0202 µM. Turning to `COc1cccc2[nH]c(C(=O)N3C[C@H]4[C@@H]([C@H]3C(=O)N[C@@H](C[C@@H]3CCNC3=O)C(=O)c3nc5ccccc5s3)C4(C)C)cc12` [Example 2, (1R,2S,5S)—N-{(2S)-1-(1,3-Benzothiazol-2-yl)-1-oxo-3-[(3S)-2-oxopyrrolidin-3-yl]propan-2-yl}-3-[(4-methoxy-1H-indol-2-yl)carbonyl]-6,6-dimethyl-3-azabicyclo[3.1.0]hexane-2-carboxamide], in experiment [2], the Ki stood at 0.206 µM. Still for that read-out and setting: for `CC(C)[C@H](NS(C)(=O)=O)C(=O)N1C[C@H]2[C@@H]([C@H]1C(=O)N[C@@H](C[C@@H]1CCNC1=O)C(=O)c1nc3c(C(F)(F)F)cccc3s1)C2(C)C` [Example 4, (1R,2S,5S)-6,6-Dimethyl-3-[N-(methylsulfonyl)-L-valyl]-N-{(2S)-1-oxo-3-[(3S)-2-oxopyrrolidin-3-yl]-1-[4-(trifluoromethyl)-1,3-benzothiazol-2-yl]propan-2-yl}-3-azabicyclo[3.1.0]hexane-2-carboxamide] the value was 0.00774 µM. On to `CC(C)(C)OC(=O)N[C@H](C(=O)N1C[C@H]2[C@@H]([C@H]1C(=O)N[C@@H](C[C@@H]1CCNC1=O)C(=O)c1nc3ccccc3s1)C2(C)C)C(C)(C)C` [Example 6, tert-Butyl {(2S)-1-[(1R,2S,5S)-2-({(2S)-1-(1,3-benzothiazol-2-yl)-1-oxo-3-[(3S)-2-oxopyrrolidin-3-yl]propan-2-yl}carbamoyl)-6,6-dimethyl-3-azabicyclo[3.1.0]hexan-3-yl]-3,3-dimethyl-1-oxobutan-2-yl}carbamate], for which the EC50 in experiment [1] stood at 0.492 µM. The inhibition constant (Ki) in experiment [2] worked out at 0.137 µM. As to `CC1(C)[C@@H]2[C@@H](C(=O)N[C@@H](C[C@@H]3CCNC3=O)C(=O)c3nc4ccccc4s3)N(C(=O)[C@H]3CCCO3)C[C@@H]21` [Example 8, (1R,2S,5S)-N-{(2S)-1-(1,3-benzothiazol-2-yl)-1-oxo-3-[(3S)-2-oxopyrrolidin-3-yl]propan-2-yl}-6,6-dimethyl-3-[(2R)-tetrahydrofuran-2-ylcarbonyl]-3-azabicyclo[3.1.0]hexane-2-carboxamide], the Ki in experiment [2] was determined as 6.33 µM.

Regarding `O=C1NCC[C@H]1C[C@H](NC(=O)[C@@H]1CC2(CC2)CN1C(=O)[C@H]1CCCO1)C(=O)c1nc2ccccc2s1` [Example 9, (6S)-N-{(2S)-1-(1,3-benzothiazol-2-yl)-1-oxo-3-[(3S)-2-oxopyrrolidin-3-yl]propan-2-yl}-5-[(2R)-tetrahydrofuran-2-ylcarbonyl]-5-azaspiro[2.4]heptane-6-carboxamide], the Ki in experiment [2] was more than 10 µM. On the same count and under the same terms, for `CC(C)[C@H](NS(=O)(=O)C1CC1)C(=O)N1C[C@H]2[C@@H]([C@H]1C(=O)N[C@@H](C[C@@H]1CCNC1=O)C(=O)c1nc3ccccc3s1)C2(C)C` [Example 10, (1R,2S,5S)-N-{(2S)-1-(1,3-benzothiazol-2-yl)-1-oxo-3-[(3S)-2-oxopyrrolidin-3-yl]propan-2-yl}-3-[N-(cyclopropylsulfonyl)-L-valyl]-6,6-dimethyl-3-azabicyclo[3.1.0]hexane-2-carboxamide] the value was 0.0196 µM. Take `CC(C)(C)[C@H](NS(=O)(=O)C(C)(C)C)C(=O)N1C[C@H]2[C@@H]([C@H]1C(=O)N[C@@H](C[C@@H]1CCNC1=O)C(=O)c1nc3ccccc3s1)C2(C)C` [Example 11, (1R,2S,5S)-N-{(2S)-1-(1,3-benzothiazol-2-yl)-1-oxo-3-[(3S)-2-oxopyrrolidin-3-yl]propan-2-yl}-3-[N-(tert-butylsulfonyl)-3-methyl-L-valyl]-6,6-dimethyl-3-azabicyclo[3.1.0]hexane-2-carboxamide]: the EC50 in experiment [1] was found to be 0.155 µM. Also, the Ki in experiment [2] is 0.0137 µM. Turning to `CC(C)[C@H](NS(=O)(=O)C(C)(C)C)C(=O)N1C[C@H]2[C@@H]([C@H]1C(=O)N[C@@H](C[C@@H]1CCNC1=O)C(=O)c1nc3ccccc3s1)C2(C)C` [Example 12, (1R,2S,5S)-N-{(2S)-1-(1,3-benzothiazol-2-yl)-1-oxo-3-[(3S)-2-oxopyrrolidin-3-yl]propan-2-yl}-3-[N-(tert-butylsulfonyl)-L-valyl]-6,6-dimethyl-3-azabicyclo[3.1.0]hexane-2-carboxamide], in experiment [2], the Ki is 0.0342 µM. Still for that read-out and setting: the same measure for `CC(C)C(=O)N[C@H](C(=O)N1C[C@H]2[C@@H]([C@H]1C(=O)N[C@@H](C[C@@H]1CCNC1=O)C(=O)c1nc3ccccc3s1)C2(C)C)C(C)(C)C` [Example 14, (1R,2S,5S)-N-{(2S)-1-(1,3-benzothiazol-2-yl)-1-oxo-3-[(3S)-2-oxopyrrolidin-3-yl]propan-2-yl}-6,6-dimethyl-3-[3-methyl-N-(2-methylpropanoyl)-L-valyl]-3-azabicyclo[3.1.0]hexane-2-carboxamide]: 0.00602 µM. On the same count and under the same terms, the same measure for `CCC(=O)N[C@H](C(=O)N1C[C@H]2[C@@H]([C@H]1C(=O)N[C@@H](C[C@@H]1CCNC1=O)C(=O)c1nc3ccccc3s1)C2(C)C)C(C)(C)C` [Example 15, (1R,2S,5S)-N-{(2S)-1-(1,3-benzothiazol-2-yl)-1-oxo-3-[(3S)-2-oxopyrrolidin-3-yl]propan-2-yl}-6,6-dimethyl-3-(3-methyl-N-propanoyl-L-valyl)-3-azabicyclo[3.1.0]hexane-2-carboxamide]: 0.00614 µM. Still for that read-out and setting: for `CCS(=O)(=O)N[C@H](C(=O)N1C[C@H]2[C@@H]([C@H]1C(=O)N[C@@H](C[C@@H]1CCNC1=O)C(=O)c1nc3ccccc3s1)C2(C)C)C(C)C` [Example 16, (1R,2S,5S)-N-{(2S)-1-(1,3-benzothiazol-2-yl)-1-oxo-3-[(3S)-2-oxopyrrolidin-3-yl]propan-2-yl}-3-[N-(ethylsulfonyl)-L-valyl]-6,6-dimethyl-3-azabicyclo[3.1.0]hexane-2-carboxamide] the value was 0.0103 µM.

With `CC(C)(C)C(=O)N[C@H](C(=O)N1C[C@H]2[C@@H]([C@H]1C(=O)N[C@@H](C[C@@H]1CCNC1=O)C(=O)c1nc3ccccc3s1)C2(C)C)C(C)(C)C` [Example 17, (1R,2S,5S)-N-{(2S)-1-(1,3-benzothiazol-2-yl)-1-oxo-3-[(3S)-2-oxopyrrolidin-3-yl]propan-2-yl}-3-[N-(2,2-dimethylpropanoyl)-3-methyl-L-valyl]-6,6-dimethyl-3-azabicyclo[3.1.0]hexane-2-carboxamide], the EC50 in experiment [1] was 0.584 µM. Further, in experiment [2], the Ki came to 0.0991 µM. The corresponding values for `CC(C)(C)[C@H](NS(C)(=O)=O)C(=O)N1C[C@H]2[C@@H]([C@H]1C(=O)N[C@@H](C[C@@H]1CCNC1=O)C(=O)c1nc3ccccc3s1)C2(C)C` [Example 18, (1R,2S,5S)-N-{(2S)-1-(1,3-benzothiazol-2-yl)-1-oxo-3-[(3S)-2-oxopyrrolidin-3-yl]propan-2-yl}-6,6-dimethyl-3-[3-methyl-N-(methylsulfonyl)-L-valyl]-3-azabicyclo[3.1.0]hexane-2-carboxamide] are 0.129 µM and 0.00155 µM. With `CC(=O)N[C@H](C(=O)N1C[C@H]2[C@@H]([C@H]1C(=O)N[C@@H](C[C@@H]1CCNC1=O)C(=O)c1nc3ccccc3s1)C2(C)C)C(C)(C)C` [Example 19, (1R,2S,5S)-3-(N-acetyl-3-methyl-L-valyl)-N-{(2S)-1-(1,3-benzothiazol-2-yl)-1-oxo-3-[(3S)-2-oxopyrrolidin-3-yl]propan-2-yl}-6,6-dimethyl-3-azabicyclo[3.1.0]hexane-2-carboxamide], in experiment [1], the EC50 is 1.33 µM. Besides, in experiment [2], the Ki was determined as 0.00977 µM.

`CC1(C)C[C@@H](C(=O)N[C@@H](C[C@@H]2CCNC2=O)C(=O)c2nc3ccccc3s2)N(C(=O)[C@H]2CCCO2)C1` [Example 20, N-{(2S)-1-(1,3-benzothiazol-2-yl)-1-oxo-3-[(3S)-2-oxopyrrolidin-3-yl]propan-2-yl}-4,4-dimethyl-1-[(2R)-tetrahydrofuran-2-ylcarbonyl]-L-prolinamide]: the Ki in experiment [2] is more than 10.8 µM.
